According to paper PMC8160793, “Potent Antimicrobial and Antibiofilm Activities of Feleucin-K3 Analogs Modified by α-(4-Pentenyl)-Ala against Multidrug-Resistant Bacteria” (Biomolecules, 2021):
Square brackets hold non-standard residues; d marks the D form. Peptide text beside a SMILES is read from it. ξ: configuration not given here. ξαMeGly(pent-4-enyl) = C=CCCCC(C)(N)C(=O)O

How the values were obtained:
MRSA = test system: MRSA; set-up: method as in PMID 32590058; details: cited from earlier work
S. aureus = experiment: Resistance development assay, sequential passaging; type: cell-based, Staphylococcus aureus; details: serial passage at sub-MIC
Experimental: (§1) Serial passage and MIC determination were used to explore whether the bacteria developed drug resistance. On the first day, the MICs of the peptides were determined as described above. The next day, the bacterial suspension of sub-MIC concentration was cultivated to the mid-log phase. The MICs of the peptides were detected again, and this process was repeated for 20 days. The MICs of the antibiotics, including amoxicillin (AML), ceftazidime (CAZ) and imipenem, were also determined as controls.

P. aeruginosa = experiment: Resistance development assay, sequential passaging; type: cell-based, Pseudomonas aeruginosa; details: serial passage at sub-MIC, 20 passages
Experimental: as §1

E. coli = experiment: Resistance development assay, sequential passaging; type: cell-based; details: serial passage at sub-MIC, 20 passages
Experimental: as §1

P. aeruginosa ATCC 27853 = type: cell-based, Pseudomonas aeruginosa; details: ATCC 27853, 18 h
Experimental: (§2) The minimum inhibitory concentration (MIC) of the Feleucin-K3 analogs was tested by the broth microdilution method. Sensitive bacteria and drug-resistant bacteria were diluted to 1 × 10^6 CFU/mL, according to the McFarland standards. Bacterial suspension and peptide solutions (8–128 μg/mL) were incubated at 37 °C for 18 h. The minimum concentration without obvious bacterial growth was the MIC of the peptides. The stability of the analogs in a physiological salt environment was also investigated. In brief, salt powder (450-mM NaCl) was dissolved in deionized water, and the following investigational steps were the same as those described before. The above steps were repeated several times, until the same value was obtained three times.

E. coli ATCC 25922 = type: cell-based; details: ATCC 25922, 18 h
Experimental: as §2

S. aureus 725 = type: cell-based, Staphylococcus aureus; details: 725, 18 h
Experimental: as §2

MRSA 52 = type: cell-based, Staphylococcus aureus; details: 52, 18 h
Experimental: as §2

MRSA 54 = type: cell-based, Staphylococcus aureus; details: 54, 18 h
Experimental: as §2

MRSA 113 = type: cell-based, Staphylococcus aureus; details: 113, 18 h
Experimental: as §2

MRSA 936 = type: cell-based, Staphylococcus aureus; details: 936, 18 h
Experimental: as §2

MRSA ATCC 33591 = type: cell-based, Staphylococcus aureus; details: ATCC 33591, 18 h
Experimental: as §2

S. aureus ATCC 25923 = type: cell-based, Staphylococcus aureus; details: ATCC 25923, 18 h
Experimental: as §2

MRSA 71 = type: cell-based, Staphylococcus aureus; details: 71, 18 h
Experimental: as §2

MRSA 75 = type: cell-based, Staphylococcus aureus; details: 75, 18 h
Experimental: as §2

S. aureus 794 = type: cell-based, Staphylococcus aureus; details: 794, 18 h
Experimental: as §2

MRSA 74 = type: cell-based, Staphylococcus aureus; details: 74, 18 h
Experimental: as §2

MRSA 51 = type: cell-based, Staphylococcus aureus; details: 51, 18 h
Experimental: as §2

MRSA 48 = type: cell-based, Staphylococcus aureus; details: 48, 18 h
Experimental: as §2

MRSA 23 = type: cell-based, Staphylococcus aureus; details: 23, 18 h
Experimental: as §2

A. baumannii 9896 = type: cell-based, Acinetobacter baumannii; details: 9896, 18 h
Experimental: as §2

A. baumannii 822144 = type: cell-based, Acinetobacter baumannii; details: 822144, 18 h
Experimental: as §2

A. baumannii 91199 = type: cell-based, Acinetobacter baumannii; details: 91199, 18 h
Experimental: as §2

A. baumannii ATCC 19606 = type: cell-based, Acinetobacter baumannii; details: ATCC 19606, 18 h
Experimental: as §2

A. baumannii 92359 = type: cell-based, Acinetobacter baumannii; details: 92359, 18 h
Experimental: as §2

A. baumannii 91810 = type: cell-based, Acinetobacter baumannii; details: 91810, 18 h
Experimental: as §2

A. baumannii 51243 = type: cell-based, Acinetobacter baumannii; details: 51243, 18 h
Experimental: as §2

A. baumannii 9234 = type: cell-based, Acinetobacter baumannii; details: 9234, 18 h
Experimental: as §2

A. baumannii 9840 = type: cell-based, Acinetobacter baumannii; details: 9840, 18 h
Experimental: as §2

A. baumannii 8309 = type: cell-based, Acinetobacter baumannii; details: 8309, 18 h
Experimental: as §2

A. baumannii 9828 = type: cell-based, Acinetobacter baumannii; details: 9828, 18 h
Experimental: as §2

A. baumannii 5444 = type: cell-based, Acinetobacter baumannii; details: 5444, 18 h
Experimental: as §2

A. baumannii 91869 = type: cell-based, Acinetobacter baumannii; details: 91869, 18 h
Experimental: as §2

A. baumannii 9331 = type: cell-based, Acinetobacter baumannii; details: 9331, 18 h
Experimental: as §2

A. baumannii 91105 = type: cell-based, Acinetobacter baumannii; details: 91105, 18 h
Experimental: as §2

A. baumannii 98110 = type: cell-based, Acinetobacter baumannii; details: 98110, 18 h
Experimental: as §2

A. baumannii 9336 = type: cell-based, Acinetobacter baumannii; details: 9336, 18 h
Experimental: as §2

A. baumannii 97830 = type: cell-based, Acinetobacter baumannii; details: 97830, 18 h
Experimental: as §2

A. baumannii 9236 = type: cell-based, Acinetobacter baumannii; details: 9236, 18 h
Experimental: as §2

A. baumannii 91944 = type: cell-based, Acinetobacter baumannii; details: 91944, 18 h
Experimental: as §2

A. baumannii 91152 = type: cell-based, Acinetobacter baumannii; details: 91152, 18 h
Experimental: as §2

CC1(C)S[C@@H]2[C@H](NC(=O)[C@H](N)c3ccc(O)cc3)C(=O)N2[C@H]1C(=O)O [AML, amoxicillin]
5 passage: passage at which resistant mutants were produced (S. aureus; strain taken as S. aureus)
up to 128 µg/mL: MIC against MRSA (MRSA)
≤ 1024 fold: maximum fold increase of MIC, S. aureus (S. aureus; 20 passages)

CC(C)(O/N=C(\C(=O)N[C@@H]1C(=O)N2C(C(=O)[O-])=C(C[n+]3ccccc3)CS[C@H]12)c1csc(N)n1)C(=O)O [CAZ, ceftazidime]
32 fold: fold increase of MIC, P. aeruginosa (P. aeruginosa)
16 fold: fold increase of MIC, E. coli (E. coli)

C=CCCCC(C)(NC(=O)[C@H](CCCCN)NC(=O)[C@H](CCCCN)NC(=O)[C@H](CC(C)C)NC(=O)[C@H](CC(C)C)NC(=O)[C@H](CCCCN)NC(=O)[C@H](CC(C)C)NC(=O)[C@@H](N)Cc1ccccc1)C(=O)N[C@@H](CC(C)C)C(N)=O (stereo partly drawn) [Feleucin-K69] (H-FLKLLKK[ξαMeGly(pent-4-enyl)]L-NH2)
4 µg/mL: MIC, S. aureus 725 (S. aureus 725) | MIC, MRSA 52 (MRSA 52) | MIC, MRSA 54 (MRSA 54) | MIC, MRSA 113 (MRSA 113) | MIC, MRSA 936 (MRSA 936) | MIC, MRSA ATCC 33591 (MRSA ATCC 33591) | MIC, S. aureus ATCC 25923 (S. aureus ATCC 25923) | MIC, MRSA 71 (MRSA 71) | MIC, MRSA 75 (MRSA 75) | MIC, MRSA 51 (MRSA 51) | MIC, MRSA 48 (MRSA 48) | MIC, MRSA 23 (MRSA 23) | MIC, A. baumannii 92359 (A. baumannii 92359)
8 µg/mL: MIC, P. aeruginosa ATCC 27853 (P. aeruginosa ATCC 27853) | MIC, E. coli ATCC 25922 (E. coli ATCC 25922) | MIC, S. aureus 794 (S. aureus 794) | MIC, MRSA 74 (MRSA 74) | MIC, A. baumannii 9896 (A. baumannii 9896) | MIC, A. baumannii 822144 (A. baumannii 822144) | MIC, A. baumannii 91199 (A. baumannii 91199) | MIC, A. baumannii ATCC 19606 (A. baumannii ATCC 19606) | MIC, A. baumannii 91810 (A. baumannii 91810) | MIC, A. baumannii 51243 (A. baumannii 51243) | MIC, A. baumannii 9234 (A. baumannii 9234) | MIC, A. baumannii 9840 (A. baumannii 9840) | MIC, A. baumannii 8309 (A. baumannii 8309) | MIC, A. baumannii 9828 (A. baumannii 9828) | MIC, A. baumannii 5444 (A. baumannii 5444) | MIC, A. baumannii 91869 (A. baumannii 91869) | MIC, A. baumannii 9331 (A. baumannii 9331) | MIC, A. baumannii 91105 (A. baumannii 91105) | MIC, A. baumannii 98110 (A. baumannii 98110) | MIC, A. baumannii 9336 (A. baumannii 9336) | MIC, A. baumannii 97830 (A. baumannii 97830) | MIC, A. baumannii 9236 (A. baumannii 9236) | MIC, A. baumannii 91944 (A. baumannii 91944) | MIC, A. baumannii 91152 (A. baumannii 91152)
